According to article PMC7357011, “Adenosine-5′-Phosphosulfate- and Sulfite Reductases Activities of Sulfate-Reducing Bacteria from Various Environments” (Biomolecules, 2020):

How the values were obtained:
[1] = tested on: T1, sulfite reductase (D. desulfuricans DSM642); test: NADH oxidation at […] nm, Lineweaver-Burk; type: cell-based, Desulfovibrio desulfuricans; details: 0.2 mmol/L NADH, EDTA; Tris-HCl pH 7.5 (started with HCl); 27 °C
T1 construct: gene dsrA; native enzyme in crude cell-free extract, not purified; NADH-oxidation read-out

[2] = molecular target: T2, APS reductase (D. desulfuricans DSM642) (Desulfovibrio desulfuricans, UniProt Q9L767); test: AMP-dependent ferricyanide reduction at […] nm, Lineweaver-Burk; type: cell-based; details: reverse direction, EDTA, Tris-HCl pH 7.5, 27 °C, varied substrate sulfite (methods)
T2 construct: gene aprB; native enzyme in crude cell-free extract, not purified; with Adenylylsulfate reductase subunit beta
T2 sequence (Q9L767 1-662): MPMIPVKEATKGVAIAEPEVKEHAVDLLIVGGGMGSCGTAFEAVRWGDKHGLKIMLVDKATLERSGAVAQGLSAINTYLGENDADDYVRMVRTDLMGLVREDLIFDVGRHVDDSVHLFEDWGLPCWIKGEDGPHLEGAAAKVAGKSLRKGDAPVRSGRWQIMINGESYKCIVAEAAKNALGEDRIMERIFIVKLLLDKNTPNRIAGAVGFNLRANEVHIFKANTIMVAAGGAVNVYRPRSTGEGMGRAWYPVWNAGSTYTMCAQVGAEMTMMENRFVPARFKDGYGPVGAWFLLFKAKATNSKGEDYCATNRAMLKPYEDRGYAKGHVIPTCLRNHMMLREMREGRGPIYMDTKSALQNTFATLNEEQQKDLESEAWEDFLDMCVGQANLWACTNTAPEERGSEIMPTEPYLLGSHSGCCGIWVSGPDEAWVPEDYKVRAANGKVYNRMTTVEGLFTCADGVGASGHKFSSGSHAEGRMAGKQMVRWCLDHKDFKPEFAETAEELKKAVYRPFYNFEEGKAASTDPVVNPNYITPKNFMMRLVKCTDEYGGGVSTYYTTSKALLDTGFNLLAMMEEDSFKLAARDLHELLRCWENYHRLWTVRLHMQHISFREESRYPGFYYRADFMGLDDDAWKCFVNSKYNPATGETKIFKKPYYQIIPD
T2 sequence (Q9L768 1-162 partner): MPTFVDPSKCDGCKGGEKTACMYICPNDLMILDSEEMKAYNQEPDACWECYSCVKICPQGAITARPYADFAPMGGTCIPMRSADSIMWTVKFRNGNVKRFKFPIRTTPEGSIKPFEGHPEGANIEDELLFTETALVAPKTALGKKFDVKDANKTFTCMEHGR

[3] = tested on: T3, APS reductase (Desulfotomaculum sp. TC3); test: as above; type: cell-based; details: reverse direction, EDTA, Tris-HCl pH 7.5, 27 °C, varied substrate sulfite (methods)
T3 construct: gene aprA; native enzyme in crude cell-free extract, not purified; with Adenylylsulfate reductase subunit beta

[4] = tested on: T4, sulfite reductase (Desulfovibrio sp. 10); test: NADH oxidation at […] nm, Lineweaver-Burk; type: biochemical; details: 0.2 mmol/L NADH, EDTA; Tris-HCl pH 7.5 (started with HCl); 27 °C
T4 construct: gene dsrA; native enzyme in crude cell-free extract, not purified; NADH-oxidation read-out

[5] = tested on: T5, sulfite reductase (Desulfovibrio sp. TC2); test: NADH oxidation at […] nm, Lineweaver-Burk; type: cell-based; details: 0.2 mmol/L NADH, EDTA; Tris-HCl pH 7.5 (started with HCl); 27 °C
T5 construct: gene dsrA; native enzyme in crude cell-free extract, not purified; NADH-oxidation read-out

[6] = tested on: T6, APS reductase (Desulfovibrio sp. TC2); test: AMP-dependent ferricyanide reduction at […] nm, Lineweaver-Burk; type: cell-based; details: reverse direction, EDTA, Tris-HCl pH 7.5, 27 °C, varied substrate sulfite (methods)
T6 construct: gene aprA; native enzyme in crude cell-free extract, not purified; with Adenylylsulfate reductase subunit beta

[7] = tested on: T7, sulfite reductase (Desulfotomaculum sp. TC3); test: NADH oxidation at […] nm, Lineweaver-Burk; type: biochemical; details: 0.2 mmol/L NADH, EDTA; Tris-HCl pH 7.5 (started with HCl); 27 °C
T7 construct: gene dsrA; native enzyme in crude cell-free extract, not purified; NADH-oxidation read-out

[8] = tested on: T8, APS reductase (Desulfomicrobium sp. TC4); test: AMP-dependent ferricyanide reduction at […] nm, Lineweaver-Burk; type: cell-based; details: reverse direction, EDTA, Tris-HCl pH 7.5, 27 °C, varied substrate sulfite (methods)
T8 construct: gene aprA; native enzyme in crude cell-free extract, not purified; with Adenylylsulfate reductase subunit beta

[9] = tested on: T9, sulfite reductase (D. piger Vib-7); test: NADH oxidation at […] nm, Lineweaver-Burk; type: cell-based, Desulfovibrio piger; details: 0.2 mmol/L NADH, EDTA; Tris-HCl pH 8.0 (started with HCl); 35 °C
T9 construct: gene dsrA; native enzyme in crude cell-free extract, not purified; NADH-oxidation read-out

[10] = molecular target: T10, sulfite reductase (D. orale Rod-9) (Desulfomicrobium orale, UniProt A0A109W607+A0A109W618); test: NADH oxidation at […] nm, Lineweaver-Burk; type: cell-based; details: 0.2 mmol/L NADH, EDTA; Tris-HCl pH 8.0 (started with HCl); 35 °C
T10 construct: gene AXF15_07380; native enzyme in crude cell-free extract, not purified; NADH-oxidation read-out

[11] = tested on: T11, sulfite reductase (D. vulgaris DSM644); test: NADH oxidation at […] nm, Lineweaver-Burk; type: biochemical, Nitratidesulfovibrio vulgaris; details: 0.2 mmol/L NADH, EDTA; Tris-HCl pH 7.5 (started with HCl); 27 °C
T11 construct: gene dsrA; native enzyme in crude cell-free extract, not purified; NADH-oxidation read-out

[12] = tested on: T12, sulfite reductase (Desulfomicrobium sp. TC4); test: NADH oxidation at […] nm, Lineweaver-Burk; type: cell-based; details: 0.2 mmol/L NADH, EDTA; Tris-HCl pH 7.5 (started with HCl); 27 °C
T12 construct: gene dsrA; native enzyme in crude cell-free extract, not purified; NADH-oxidation read-out

T10 sequence (A0A109W618 1-437): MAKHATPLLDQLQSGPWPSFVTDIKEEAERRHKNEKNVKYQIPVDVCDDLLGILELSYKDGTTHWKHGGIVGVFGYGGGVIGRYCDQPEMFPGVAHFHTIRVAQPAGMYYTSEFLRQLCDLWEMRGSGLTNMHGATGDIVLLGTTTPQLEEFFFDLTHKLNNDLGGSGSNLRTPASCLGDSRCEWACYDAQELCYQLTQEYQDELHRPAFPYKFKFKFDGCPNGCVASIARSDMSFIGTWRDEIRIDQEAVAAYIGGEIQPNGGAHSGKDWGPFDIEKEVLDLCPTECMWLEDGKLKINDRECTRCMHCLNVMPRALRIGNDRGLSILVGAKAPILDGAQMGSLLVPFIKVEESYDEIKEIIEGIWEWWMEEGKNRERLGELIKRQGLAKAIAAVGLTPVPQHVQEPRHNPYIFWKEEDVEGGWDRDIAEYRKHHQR
T10 sequence (A0A109W607 1-386): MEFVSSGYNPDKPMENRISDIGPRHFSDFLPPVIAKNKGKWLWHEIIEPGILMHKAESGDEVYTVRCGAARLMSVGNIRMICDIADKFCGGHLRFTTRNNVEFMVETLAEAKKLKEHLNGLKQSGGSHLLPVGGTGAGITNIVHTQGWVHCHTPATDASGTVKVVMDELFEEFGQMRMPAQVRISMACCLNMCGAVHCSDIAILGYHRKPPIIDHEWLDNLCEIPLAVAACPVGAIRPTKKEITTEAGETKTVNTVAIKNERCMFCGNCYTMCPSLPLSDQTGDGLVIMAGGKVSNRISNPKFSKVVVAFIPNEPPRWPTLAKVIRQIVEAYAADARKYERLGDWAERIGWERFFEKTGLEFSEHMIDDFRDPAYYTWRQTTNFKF

sulfite
Km [1]: 9.97 mM | Km [2]: 2.12 mM | Km [3]: 1.49 mM | Km [4]: 46.7 mM | Km [5]: 26.1 mM | Km [6]: 1.59 mM | Km [7]: 46.2 mM | Km [8]: 1.1 mM | Km [9]: 3.53 mM | Km [10]: 3.86 mM | Km [11]: 31.7 mM | Km [12]: 19.4 mM
